Series [1] can be described thus: Inhibition of full length human ABCB1 expressed in Flp-In-293 cells assessed as potentiation of vincristine-induced cytotoxicity by measuring vincristine IC50 at 10 uM after 72 hrs by SRB assay (Rvb = 823.13 +/- 15.79 nM). On the technique in general: The SRB assay estimates cell density from bound dye.
A short description of series [2]: Inhibition of full length human ABCB1 expressed in Flp-In-293 cells assessed as potentiation of doxorubicin-induced cytotoxicity by measuring doxorubicin IC50 at 8 uM after 72 hrs by SRB assay (Rvb = 914.83 +/- 15.85 nM).
Series [3] can be described thus: Inhibition of full length human ABCB1 expressed in Flp-In-293 cells assessed as potentiation of vincristine-induced cytotoxicity by measuring vincristine IC50 at 8 uM after 72 hrs by SRB assay (Rvb = 823.13 +/- 15.79 nM).
Series [4] is described as follows: Inhibition of ABCB1 in human KBVIN cells assessed as potentiation of paclitaxel-induced cytotoxicity by measuring paclitaxel IC50 at 8 uM after 72 hrs by SRB assay (Rvb = 1196.09 +/- 44.8 nM).
Series [5] in a line: Inhibition of full length human ABCB1 expressed in Flp-In-293 cells assessed as potentiation of paclitaxel-induced cytotoxicity by measuring paclitaxel IC50 at 8 uM after 72 hrs by SRB assay (Rvb = 644.78 +/- 2.6 nM).
Series [6] can be described thus: Inhibition of full length human ABCB1 expressed in Flp-In-293 cells assessed as potentiation of paclitaxel-induced cytotoxicity by measuring paclitaxel IC50 at 10 uM after 72 hrs by SRB assay (Rvb = 644.78 +/- 2.6 nM).
The nature of series [7]: Inhibition of full length human ABCB1 expressed in Flp-In-293 cells assessed as potentiation of doxorubicin-induced cytotoxicity by measuring doxorubicin IC50 at 10 uM after 72 hrs by SRB assay (Rvb = 914.83 +/- 15.85 nM).
Series [8] can be described thus: Inhibition of ABCB1 in human KBVIN cells assessed as potentiation of vincristine-induced cytotoxicity by measuring vincristine IC50 at 8 uM after 72 hrs by SRB assay (Rvb = 2867.34 +/- 142.36 nM).
Series [9] in a line: Inhibition of ABCB1 in human KBVIN cells assessed as potentiation of paclitaxel-induced cytotoxicity by measuring paclitaxel IC50 at 10 uM after 72 hrs by SRB assay (Rvb = 1196.09 +/- 44.8 nM).
Series [10] can be described thus: Inhibition of ABCB1 in human KBVIN cells assessed as potentiation of vincristine-induced cytotoxicity by measuring vincristine IC50 at 10 uM after 72 hrs by SRB assay (Rvb = 2867.34 +/- 142.36 nM).

As a reminder, the IC50 is the concentration that gives 50% inhibition. Regarding `Cc1cccc(-c2coc3c(c(O)cc4occ(-c5cccc(C)c5)c(=O)c43)c2=O)c1`, the IC50 in series [1] stood at 39 nM; in [2] it was 664 nM; in series [3] it was 53 nM; in series [4], 63 nM; in series [5], 60 nM; in series [6], 40 nM. In addition, the IC50 is 586 nM in series [7], 390 nM in [8], 52 nM in series [9] and 96 nM in series [10].
As to `COc1ccc(-c2coc3c(c(O)cc4occ(-c5ccc(OC)cc5)c(=O)c43)c2=O)cc1`, the IC50 in series [1] came to 500 nM; in series [2], 576 nM; in series [3], 577 nM; in series [5], 303 nM; in series [6], 79 nM; in [7], 544 nM.
As to `COc1ccc(-c2coc3c(c(O)cc4occ(-c5ccc(OC)c(OC)c5)c(=O)c43)c2=O)cc1OC`, the IC50 in [1] was 85 nM; in series [2], 597 nM; in series [3], 203 nM; in [5] it was 73 nM; in [6], 68 nM; in series [7], 594 nM.

The values above are taken from BindingDB's records for doi:10.1016/j.ejmech.2016.03.070 (China Medical University, 2016).
